# Reference: the kinase profiling compilation of Christmann-Franck et al. (2016)
# Legend:
# Assay in all cases: Caliper, Mobility shift assay off-chip
# [1] = target: FYN (human) (UniProt P06241)
# [2] = target: AKT2 (human) (UniProt P31751)
# [3] = target: DCLK2 (human) (UniProt Q8N568)
# [4] = target: IGF1R (human) (UniProt P08069)
# [5] = target: MAPK12 (human) (UniProt P53778)
# [6] = target: FLT3 (human) (UniProt P36888)
# [7] = target: RPS6KA5 KD1 KD2 (human) (UniProt O75582)
# [8] = target: INSR (human) (UniProt P06213)
# [9] = target: FGFR3 (human) (UniProt P22607)
# [10] = target: FER (human) (UniProt P16591)
# [11] = target: RPS6KB1 (human) (UniProt P23443)
# [12] = target: PRKD3 (human) (UniProt O94806)
# [13] = target: SRC (human) (UniProt P12931)
# [14] = target: TSSK2 (human) (UniProt Q96PF2)
# [15] = target: PRKCG (human) (UniProt P05129)
# [16] = target: MAPKAPK3 (human) (UniProt Q16644)
# [17] = target: FGFR2 (human) (UniProt P21802)
# [18] = test system: ABL1 (human), P00519 [Q252H]
# [19] = target: CHEK2 (human) (UniProt O96017)
# [20] = target: PIM1 (human) (UniProt P11309)
# [21] = target: BTK (human) (UniProt Q06187)
# [22] = target: CAMK2G (human) (UniProt Q13555)
# [23] = target: RPS6KA3 KD1 KD2 (human) (UniProt P51812)
# [24] = target: AKT1 (human) (UniProt P31749)
# [25] = target: PDGFRA (human) (UniProt P16234)
# [26] = target: BRSK2 (human) (UniProt Q8IWQ3)
# [27] = test system: FGFR2 (human), P21802 [N549H]
# [28] = target: SGK3 (human) (UniProt Q96BR1)
# [29] = target: CAMK4 (human) (UniProt Q16566)
# [30] = target: PAK2 (human) (UniProt Q13177)
# [31] = target: AURKB (human) (UniProt Q96GD4)
# [32] = target: PRKCB1 (human) (UniProt P05771)
# [33] = target: MAPK1 (human) (UniProt P28482)
# [34] = target: PRKCD (human) (UniProt Q05655)
# Chain of PRKCD (human) (Q05655 whole entry, looked up): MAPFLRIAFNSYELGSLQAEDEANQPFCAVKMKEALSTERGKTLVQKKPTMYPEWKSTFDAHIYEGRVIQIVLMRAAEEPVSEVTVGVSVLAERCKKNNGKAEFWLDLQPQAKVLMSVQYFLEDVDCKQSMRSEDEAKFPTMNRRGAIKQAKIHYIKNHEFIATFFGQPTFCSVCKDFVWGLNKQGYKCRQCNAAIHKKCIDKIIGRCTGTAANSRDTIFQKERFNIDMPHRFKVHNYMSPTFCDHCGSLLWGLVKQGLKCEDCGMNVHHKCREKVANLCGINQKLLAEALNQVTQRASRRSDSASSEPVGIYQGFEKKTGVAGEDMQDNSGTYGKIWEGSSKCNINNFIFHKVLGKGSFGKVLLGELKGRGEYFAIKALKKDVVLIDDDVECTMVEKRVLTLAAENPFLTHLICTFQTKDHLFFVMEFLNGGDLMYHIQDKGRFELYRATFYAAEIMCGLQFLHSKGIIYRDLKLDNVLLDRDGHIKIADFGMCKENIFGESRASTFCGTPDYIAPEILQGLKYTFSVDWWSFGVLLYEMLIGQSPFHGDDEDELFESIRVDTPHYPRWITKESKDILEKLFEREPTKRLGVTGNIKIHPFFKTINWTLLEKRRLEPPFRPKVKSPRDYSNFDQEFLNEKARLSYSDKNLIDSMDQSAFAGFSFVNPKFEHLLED
# Chain of TSSK2 (human) (Q96PF2 whole entry, looked up): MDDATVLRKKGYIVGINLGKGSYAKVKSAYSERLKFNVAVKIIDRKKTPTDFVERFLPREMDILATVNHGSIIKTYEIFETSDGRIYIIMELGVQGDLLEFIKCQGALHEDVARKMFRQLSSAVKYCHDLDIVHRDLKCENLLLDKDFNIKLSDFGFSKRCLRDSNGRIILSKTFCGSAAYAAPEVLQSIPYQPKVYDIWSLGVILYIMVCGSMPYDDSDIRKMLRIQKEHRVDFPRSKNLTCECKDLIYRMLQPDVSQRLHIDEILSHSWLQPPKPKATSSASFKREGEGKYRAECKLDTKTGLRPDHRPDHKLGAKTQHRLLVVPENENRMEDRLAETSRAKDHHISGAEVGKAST
# Chain of MAPKAPK3 (human) (Q16644 whole entry, looked up): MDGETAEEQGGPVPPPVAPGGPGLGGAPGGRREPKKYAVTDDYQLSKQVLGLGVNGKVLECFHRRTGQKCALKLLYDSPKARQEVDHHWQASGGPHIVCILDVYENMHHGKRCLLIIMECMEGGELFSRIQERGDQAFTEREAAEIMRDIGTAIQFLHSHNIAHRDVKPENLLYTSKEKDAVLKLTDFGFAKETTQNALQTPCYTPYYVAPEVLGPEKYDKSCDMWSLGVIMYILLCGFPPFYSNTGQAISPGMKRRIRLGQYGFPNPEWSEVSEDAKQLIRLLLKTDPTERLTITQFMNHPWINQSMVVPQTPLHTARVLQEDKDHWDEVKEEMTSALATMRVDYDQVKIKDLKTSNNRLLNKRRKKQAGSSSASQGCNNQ
# Chain of PRKD3 (human) (O94806 whole entry, looked up): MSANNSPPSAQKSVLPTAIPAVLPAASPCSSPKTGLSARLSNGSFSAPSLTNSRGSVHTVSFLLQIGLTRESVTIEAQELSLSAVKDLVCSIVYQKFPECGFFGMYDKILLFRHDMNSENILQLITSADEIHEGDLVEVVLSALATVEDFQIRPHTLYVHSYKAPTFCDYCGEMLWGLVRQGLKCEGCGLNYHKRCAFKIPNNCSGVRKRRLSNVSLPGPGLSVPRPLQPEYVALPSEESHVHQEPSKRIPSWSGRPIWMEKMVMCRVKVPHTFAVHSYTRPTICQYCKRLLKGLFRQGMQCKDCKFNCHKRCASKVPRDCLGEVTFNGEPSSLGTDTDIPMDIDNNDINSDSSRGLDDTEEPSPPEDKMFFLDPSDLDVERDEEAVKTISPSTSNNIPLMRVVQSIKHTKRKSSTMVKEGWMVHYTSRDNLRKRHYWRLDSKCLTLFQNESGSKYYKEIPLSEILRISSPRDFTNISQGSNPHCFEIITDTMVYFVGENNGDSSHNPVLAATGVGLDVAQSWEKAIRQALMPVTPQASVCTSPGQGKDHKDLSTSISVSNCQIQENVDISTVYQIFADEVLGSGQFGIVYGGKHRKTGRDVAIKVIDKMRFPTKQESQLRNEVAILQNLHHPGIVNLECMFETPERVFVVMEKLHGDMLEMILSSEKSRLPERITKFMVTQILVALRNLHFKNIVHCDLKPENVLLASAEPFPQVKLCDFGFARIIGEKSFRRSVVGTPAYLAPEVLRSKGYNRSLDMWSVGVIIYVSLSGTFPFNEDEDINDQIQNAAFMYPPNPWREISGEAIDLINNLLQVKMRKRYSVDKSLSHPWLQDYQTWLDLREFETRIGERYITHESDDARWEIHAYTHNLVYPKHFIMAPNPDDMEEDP
# Chain of FGFR2 (human) (P21802 whole entry, looked up): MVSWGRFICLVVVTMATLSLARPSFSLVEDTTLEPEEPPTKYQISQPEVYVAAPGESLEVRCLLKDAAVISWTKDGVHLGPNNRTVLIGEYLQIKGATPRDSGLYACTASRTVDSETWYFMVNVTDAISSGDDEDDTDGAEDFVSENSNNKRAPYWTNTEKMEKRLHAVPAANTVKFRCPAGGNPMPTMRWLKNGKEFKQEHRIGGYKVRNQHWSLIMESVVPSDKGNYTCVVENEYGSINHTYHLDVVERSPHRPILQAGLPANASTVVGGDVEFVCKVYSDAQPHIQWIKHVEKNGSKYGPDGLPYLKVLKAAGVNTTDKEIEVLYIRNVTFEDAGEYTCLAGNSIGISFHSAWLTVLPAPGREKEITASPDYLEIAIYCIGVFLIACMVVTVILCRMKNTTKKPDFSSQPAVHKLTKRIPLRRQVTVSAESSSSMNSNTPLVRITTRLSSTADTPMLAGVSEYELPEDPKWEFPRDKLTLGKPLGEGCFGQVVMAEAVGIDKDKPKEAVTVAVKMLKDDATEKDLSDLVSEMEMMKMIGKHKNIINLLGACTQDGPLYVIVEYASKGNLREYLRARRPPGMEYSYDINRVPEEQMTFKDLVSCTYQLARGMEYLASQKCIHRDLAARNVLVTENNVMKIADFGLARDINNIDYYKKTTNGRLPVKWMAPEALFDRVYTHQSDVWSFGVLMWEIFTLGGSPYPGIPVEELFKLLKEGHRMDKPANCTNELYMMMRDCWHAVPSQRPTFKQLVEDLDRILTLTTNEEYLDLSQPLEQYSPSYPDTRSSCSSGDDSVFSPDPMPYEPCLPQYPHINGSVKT
# Chain of FER (human) (P16591 whole entry, looked up): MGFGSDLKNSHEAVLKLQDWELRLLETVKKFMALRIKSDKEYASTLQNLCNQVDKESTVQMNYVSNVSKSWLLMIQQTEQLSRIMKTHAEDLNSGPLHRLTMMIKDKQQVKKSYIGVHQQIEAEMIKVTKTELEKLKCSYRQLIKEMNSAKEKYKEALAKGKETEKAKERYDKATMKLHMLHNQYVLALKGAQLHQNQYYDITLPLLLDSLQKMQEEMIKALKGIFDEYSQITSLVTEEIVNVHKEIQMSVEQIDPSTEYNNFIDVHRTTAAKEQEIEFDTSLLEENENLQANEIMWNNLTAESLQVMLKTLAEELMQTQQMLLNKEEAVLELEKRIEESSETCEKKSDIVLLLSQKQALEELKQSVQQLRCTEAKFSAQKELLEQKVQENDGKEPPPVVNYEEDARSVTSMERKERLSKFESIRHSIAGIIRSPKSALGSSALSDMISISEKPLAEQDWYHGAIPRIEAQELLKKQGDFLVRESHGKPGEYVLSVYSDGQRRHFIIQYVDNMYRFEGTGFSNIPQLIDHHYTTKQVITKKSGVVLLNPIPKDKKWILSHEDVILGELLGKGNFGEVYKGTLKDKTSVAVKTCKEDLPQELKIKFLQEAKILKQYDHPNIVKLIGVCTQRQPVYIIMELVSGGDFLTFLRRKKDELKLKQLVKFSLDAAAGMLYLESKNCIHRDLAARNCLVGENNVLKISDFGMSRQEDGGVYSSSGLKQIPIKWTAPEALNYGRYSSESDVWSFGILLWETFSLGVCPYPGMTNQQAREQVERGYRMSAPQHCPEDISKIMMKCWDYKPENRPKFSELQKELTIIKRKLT
# Chain of MAPK1 (human) (P28482 whole entry, looked up): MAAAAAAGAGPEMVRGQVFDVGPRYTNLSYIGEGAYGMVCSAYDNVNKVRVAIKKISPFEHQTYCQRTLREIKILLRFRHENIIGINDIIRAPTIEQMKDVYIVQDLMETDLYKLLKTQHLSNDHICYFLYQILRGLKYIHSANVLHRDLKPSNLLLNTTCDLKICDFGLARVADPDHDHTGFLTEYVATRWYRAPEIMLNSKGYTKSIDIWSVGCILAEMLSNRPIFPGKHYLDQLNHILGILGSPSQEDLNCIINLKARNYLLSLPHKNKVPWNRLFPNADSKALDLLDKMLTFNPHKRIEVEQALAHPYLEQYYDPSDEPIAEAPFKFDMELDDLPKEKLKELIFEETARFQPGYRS
# Chain of BTK (human) (Q06187 whole entry, looked up): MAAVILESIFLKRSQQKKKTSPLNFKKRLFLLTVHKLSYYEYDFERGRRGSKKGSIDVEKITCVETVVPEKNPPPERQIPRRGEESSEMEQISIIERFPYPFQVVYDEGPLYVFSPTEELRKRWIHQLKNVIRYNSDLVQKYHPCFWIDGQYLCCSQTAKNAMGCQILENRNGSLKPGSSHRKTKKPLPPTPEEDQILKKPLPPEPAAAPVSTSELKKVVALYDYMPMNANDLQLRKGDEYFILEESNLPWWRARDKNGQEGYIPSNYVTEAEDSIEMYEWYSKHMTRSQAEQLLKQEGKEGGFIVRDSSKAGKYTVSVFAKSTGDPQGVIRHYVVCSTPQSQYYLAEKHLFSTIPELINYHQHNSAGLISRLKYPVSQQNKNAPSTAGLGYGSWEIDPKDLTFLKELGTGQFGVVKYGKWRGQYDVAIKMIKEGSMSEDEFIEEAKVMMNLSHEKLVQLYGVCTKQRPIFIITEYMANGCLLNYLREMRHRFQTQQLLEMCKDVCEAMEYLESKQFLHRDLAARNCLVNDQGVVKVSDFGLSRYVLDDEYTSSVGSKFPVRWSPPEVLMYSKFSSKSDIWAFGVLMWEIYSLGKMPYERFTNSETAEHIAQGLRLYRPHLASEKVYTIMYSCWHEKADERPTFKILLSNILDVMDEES
# Chain of FGFR2 (human), P21802 [N549H] (P21802 whole entry N549H, looked up): as the sequence (P21802 whole entry, looked up) above, with N549H counted along it
smiles,measurement,setting,value
Cn1cc(-c2cnc3ccc4ccc(CS(=O)(=O)NC5CCCCC5)cc4c(=O)c3c2)cn1,inhibition,[1]; compound 0.01 µM,-0.7%
same,inhibition,[1]; compound 0.1 µM,-3%
same,inhibition,[2]; compound 0.01 µM,-1.3%
same,inhibition,[2]; compound 0.1 µM,2%
same,inhibition,[3]; compound 0.01 µM,1.7%
same,inhibition,[3]; compound 0.1 µM,7.8%
same,inhibition,[4]; compound 0.01 µM,3.9%
same,inhibition,[4]; compound 0.1 µM,-7.9%
same,inhibition,[5]; compound 0.01 µM,2%
same,inhibition,[5]; compound 0.1 µM,5.1%
same,inhibition,[6]; compound 0.01 µM,-1%
same,inhibition,[6]; compound 0.1 µM,-2.3%
same,inhibition,[7]; compound 0.01 µM,3.4%
same,inhibition,[7]; compound 0.1 µM,-4.2%
same,inhibition,[8]; compound 0.01 µM,3.1%
same,inhibition,[8]; compound 0.1 µM,3.1%
same,inhibition,[9]; compound 0.01 µM,-4%
same,inhibition,[9]; compound 0.1 µM,7.8%
same,inhibition,[10]; compound 0.01 µM,-1%
same,inhibition,[10]; compound 0.1 µM,0.2%
same,inhibition,[11]; compound 0.01 µM,8%
same,inhibition,[11]; compound 0.1 µM,4.2%
same,inhibition,[12]; compound 0.01 µM,-2.4%
same,inhibition,[12]; compound 0.1 µM,10.4%
same,inhibition,[13]; compound 0.01 µM,2.2%
same,inhibition,[13]; compound 0.1 µM,-1.4%
same,inhibition,[14]; compound 0.01 µM,2.5%
same,inhibition,[14]; compound 0.1 µM,0.7%
same,inhibition,[15]; compound 0.01 µM,2.4%
same,inhibition,[15]; compound 0.1 µM,2.1%
same,inhibition,[16]; compound 0.01 µM,-8%
same,inhibition,[16]; compound 0.1 µM,4.1%
same,inhibition,[17]; compound 0.01 µM,0.5%
same,inhibition,[17]; compound 0.1 µM,16.5%
same,inhibition,[18]; compound 0.01 µM,2.5%
same,inhibition,[18]; compound 0.1 µM,7.6%
same,inhibition,[19]; compound 0.01 µM,-2.6%
same,inhibition,[19]; compound 0.1 µM,-7.4%
same,inhibition,[20]; compound 0.01 µM,-11.4%
same,inhibition,[20]; compound 0.1 µM,-4.6%
same,inhibition,[21]; compound 0.01 µM,8.4%
same,inhibition,[21]; compound 0.1 µM,5.5%
same,inhibition,[22]; compound 0.01 µM,13.5%
same,inhibition,[22]; compound 0.1 µM,-2.8%
same,inhibition,[23]; compound 0.01 µM,-3.6%
same,inhibition,[23]; compound 0.1 µM,-3.8%
same,inhibition,[24]; compound 0.01 µM,0.8%
same,inhibition,[24]; compound 0.1 µM,7.4%
same,inhibition,[25]; compound 0.01 µM,0.2%
same,inhibition,[25]; compound 0.1 µM,9%
same,inhibition,[26]; compound 0.01 µM,0.3%
same,inhibition,[26]; compound 0.1 µM,9.7%
same,inhibition,[27]; compound 0.01 µM,-3.9%
same,inhibition,[27]; compound 0.1 µM,12.4%
same,inhibition,[28]; compound 0.01 µM,4.9%
same,inhibition,[28]; compound 0.1 µM,17.7%
same,inhibition,[29]; compound 0.01 µM,2.1%
same,inhibition,[29]; compound 0.1 µM,2.3%
same,inhibition,[30]; compound 0.01 µM,4.4%
same,inhibition,[30]; compound 0.1 µM,4.9%
same,inhibition,[31]; compound 0.01 µM,-0.1%
same,inhibition,[31]; compound 0.1 µM,11.7%
same,inhibition,[32]; compound 0.01 µM,-6%
same,inhibition,[32]; compound 0.1 µM,1.4%
same,inhibition,[33]; compound 0.01 µM,-10.5%
same,inhibition,[33]; compound 0.1 µM,-4.8%
same,inhibition,[34]; compound 0.01 µM,-8.7%
same,inhibition,[34]; compound 0.1 µM,8.3%
O=C(CCc1ccc2ccc3ncc(C4CCNCC4)cc3c(=O)c2c1)NCc1ccccn1,inhibition,[1]; compound 0.1 µM,-4.2%
same,inhibition,[1]; compound 1.0 µM,2.7%
same,inhibition,[2]; compound 0.1 µM,-1.5%
same,inhibition,[2]; compound 1.0 µM,3.1%
same,inhibition,[3]; compound 0.1 µM,2%
same,inhibition,[3]; compound 1.0 µM,5.8%
same,inhibition,[4]; compound 0.1 µM,-3%
same,inhibition,[4]; compound 1.0 µM,1.3%
same,inhibition,[5]; compound 0.1 µM,6.1%
same,inhibition,[5]; compound 1.0 µM,8.3%
same,inhibition,[6]; compound 0.1 µM,-5.8%
same,inhibition,[6]; compound 1.0 µM,-4%
same,inhibition,[7]; compound 0.1 µM,-5.3%
same,inhibition,[7]; compound 1.0 µM,-0.9%
same,inhibition,[8]; compound 0.1 µM,5.1%
same,inhibition,[8]; compound 1.0 µM,3.5%
same,inhibition,[9]; compound 0.1 µM,0.5%
same,inhibition,[9]; compound 1.0 µM,4.9%
same,inhibition,[10]; compound 0.1 µM,-14.2%
same,inhibition,[10]; compound 1.0 µM,0.5%
same,inhibition,[11]; compound 0.1 µM,10.9%
same,inhibition,[11]; compound 1.0 µM,-3.3%
same,inhibition,[12]; compound 0.1 µM,-21.2%
same,inhibition,[12]; compound 1.0 µM,2.2%
same,inhibition,[13]; compound 0.1 µM,1.1%
same,inhibition,[13]; compound 1.0 µM,6.6%
same,inhibition,[14]; compound 0.1 µM,-2.3%
same,inhibition,[14]; compound 1.0 µM,1.3%
same,inhibition,[15]; compound 0.1 µM,10.9%
same,inhibition,[15]; compound 1.0 µM,-15%
same,inhibition,[16]; compound 0.1 µM,-0.3%
same,inhibition,[16]; compound 1.0 µM,0.5%
same,inhibition,[17]; compound 0.1 µM,1.4%
same,inhibition,[17]; compound 1.0 µM,7.8%
same,inhibition,[18]; compound 0.1 µM,-1.7%
same,inhibition,[18]; compound 1.0 µM,8.1%
same,inhibition,[19]; compound 0.1 µM,4.2%
same,inhibition,[19]; compound 1.0 µM,1.2%
same,inhibition,[20]; compound 0.1 µM,-2.4%
same,inhibition,[20]; compound 1.0 µM,-4.4%
same,inhibition,[21]; compound 0.1 µM,2.1%
same,inhibition,[21]; compound 1.0 µM,1.1%
same,inhibition,[22]; compound 0.1 µM,-3.5%
same,inhibition,[22]; compound 1.0 µM,-2.8%
same,inhibition,[23]; compound 0.1 µM,0.7%
same,inhibition,[23]; compound 1.0 µM,62.5%
same,inhibition,[24]; compound 0.1 µM,-7.2%
same,inhibition,[24]; compound 1.0 µM,1.7%
same,inhibition,[25]; compound 0.1 µM,1.5%
same,inhibition,[25]; compound 1.0 µM,3.9%
same,inhibition,[26]; compound 0.1 µM,3.4%
same,inhibition,[26]; compound 1.0 µM,-3.3%
same,inhibition,[27]; compound 0.1 µM,-8.4%
same,inhibition,[27]; compound 1.0 µM,0.9%
same,inhibition,[28]; compound 0.1 µM,9%
same,inhibition,[28]; compound 1.0 µM,1%
same,inhibition,[29]; compound 0.1 µM,-1.7%
same,inhibition,[29]; compound 1.0 µM,-3.4%
same,inhibition,[30]; compound 0.1 µM,2.1%
same,inhibition,[30]; compound 1.0 µM,13.1%
same,inhibition,[31]; compound 0.1 µM,8%
same,inhibition,[31]; compound 1.0 µM,27.6%
same,inhibition,[32]; compound 0.1 µM,1.2%
same,inhibition,[32]; compound 1.0 µM,-12.2%
same,inhibition,[33]; compound 0.1 µM,-1.2%
same,inhibition,[33]; compound 1.0 µM,3.7%
same,inhibition,[34]; compound 0.1 µM,0.7%
same,inhibition,[34]; compound 1.0 µM,-5.4%
Cn1cc(-c2cnc3ccc4ccc(CS(=O)(=O)CCc5ccccn5)cc4c(=O)c3c2)cn1,inhibition,[1]; compound 0.1 µM,-11.5%
same,inhibition,[1]; compound 1.0 µM,-2.5%
same,inhibition,[2]; compound 0.1 µM,-0.1%
same,inhibition,[2]; compound 1.0 µM,-0.5%
same,inhibition,[3]; compound 0.1 µM,-6.4%
same,inhibition,[3]; compound 1.0 µM,-2.5%
same,inhibition,[4]; compound 0.1 µM,-23.8%
same,inhibition,[4]; compound 1.0 µM,-10%
same,inhibition,[5]; compound 0.1 µM,-6.6%
same,inhibition,[5]; compound 1.0 µM,0.8%
same,inhibition,[6]; compound 0.1 µM,1.3%
same,inhibition,[6]; compound 1.0 µM,24.2%
same,inhibition,[7]; compound 0.1 µM,-3.5%
same,inhibition,[7]; compound 1.0 µM,-7.4%
same,inhibition,[8]; compound 0.1 µM,1.4%
same,inhibition,[8]; compound 1.0 µM,3.5%
same,inhibition,[9]; compound 0.1 µM,34.5%
same,inhibition,[10]; compound 0.1 µM,-6.8%
same,inhibition,[11]; compound 0.1 µM,-19.5%
same,inhibition,[11]; compound 1.0 µM,-2.1%
same,inhibition,[12]; compound 0.1 µM,-6.1%
same,inhibition,[12]; compound 1.0 µM,3.6%
same,inhibition,[13]; compound 0.1 µM,-0.3%
same,inhibition,[13]; compound 1.0 µM,4.8%
same,inhibition,[14]; compound 1.0 µM,-7.1%
same,inhibition,[15]; compound 0.1 µM,-2%
same,inhibition,[15]; compound 1.0 µM,-3.4%
same,inhibition,[16]; compound 0.1 µM,1.8%
same,inhibition,[16]; compound 1.0 µM,-5.4%
same,inhibition,[17]; compound 0.1 µM,18.3%
same,inhibition,[17]; compound 1.0 µM,64.7%
same,inhibition,[18]; compound 0.1 µM,4.6%
same,inhibition,[18]; compound 1.0 µM,9.3%
same,inhibition,[19]; compound 0.1 µM,-0.4%
same,inhibition,[19]; compound 1.0 µM,4.5%
same,inhibition,[20]; compound 0.1 µM,-3.6%
same,inhibition,[20]; compound 1.0 µM,-16.7%
same,inhibition,[21]; compound 0.1 µM,-2.1%
same,inhibition,[21]; compound 1.0 µM,22%
same,inhibition,[22]; compound 0.1 µM,-0.2%
same,inhibition,[22]; compound 1.0 µM,-1.5%
same,inhibition,[23]; compound 0.1 µM,-9.2%
same,inhibition,[23]; compound 1.0 µM,-1.3%
same,inhibition,[24]; compound 0.1 µM,-1.3%
same,inhibition,[24]; compound 1.0 µM,0.7%
same,inhibition,[25]; compound 0.1 µM,-13%
same,inhibition,[26]; compound 0.1 µM,1.5%
same,inhibition,[26]; compound 1.0 µM,2.5%
same,inhibition,[27]; compound 0.1 µM,5.5%
same,inhibition,[27]; compound 1.0 µM,15.5%
same,inhibition,[28]; compound 0.1 µM,-10.4%
same,inhibition,[28]; compound 1.0 µM,6.2%
same,inhibition,[29]; compound 0.1 µM,-0.1%
same,inhibition,[29]; compound 1.0 µM,3.5%
same,inhibition,[30]; compound 0.1 µM,-38.4%
same,inhibition,[30]; compound 1.0 µM,-0.3%
same,inhibition,[31]; compound 0.1 µM,10.5%
same,inhibition,[31]; compound 1.0 µM,34.7%
same,inhibition,[32]; compound 1.0 µM,0.9%
same,inhibition,[33]; compound 0.1 µM,-2.4%
same,inhibition,[33]; compound 1.0 µM,-1.9%
same,inhibition,[34]; compound 0.1 µM,-36%
same,inhibition,[34]; compound 1.0 µM,2.1%
